Experimental findings from publication PMC3911823 (The FEBS journal, 2011) are described below.

The structures appear in SMILES notation. Substitutions are numbered along the chain they refer to. “Also recorded” adds a separate entry of the source.

The target in one data set is T1, P450 2B4 H172F (Oryctolagus cuniculus, UniProt P00178, H172F).
T1 sequence (P00178 with tags, fused parts or gaps H172F limits assumed): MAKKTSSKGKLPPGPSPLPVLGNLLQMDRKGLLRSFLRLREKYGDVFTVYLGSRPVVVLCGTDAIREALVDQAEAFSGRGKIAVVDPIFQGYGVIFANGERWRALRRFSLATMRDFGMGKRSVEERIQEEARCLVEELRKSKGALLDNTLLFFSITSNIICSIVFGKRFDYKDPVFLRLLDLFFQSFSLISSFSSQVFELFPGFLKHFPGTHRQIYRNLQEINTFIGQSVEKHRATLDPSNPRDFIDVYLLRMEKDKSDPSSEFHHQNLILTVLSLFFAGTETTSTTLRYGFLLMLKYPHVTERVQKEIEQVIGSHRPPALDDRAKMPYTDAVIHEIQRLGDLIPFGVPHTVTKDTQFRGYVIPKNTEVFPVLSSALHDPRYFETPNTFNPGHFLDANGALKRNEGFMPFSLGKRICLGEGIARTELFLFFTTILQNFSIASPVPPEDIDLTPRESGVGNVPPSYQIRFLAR

Another data set deals with T2, P450 2B4 L437A (Oryctolagus cuniculus, UniProt P00178, L437A).
T2 sequence (P00178 with tags, fused parts or gaps L437A limits assumed): T1 sequence (P00178 with tags, fused parts or gaps H172F limits assumed) with F153H, L418A
The format is biochemical, rabbit (Oryctolagus cuniculus).

The next data set concerns the target T3, P450 2B4 E474D (Oryctolagus cuniculus, UniProt P00178, E474D).
T3 sequence (P00178 with tags, fused parts or gaps E474D limits assumed): T1 sequence (P00178 with tags, fused parts or gaps H172F limits assumed) with F153H, E455D
Nature of the data set: Inhibition of 7-EFC O-deethylation by imidazole inhibitors. The format is biochemical, rabbit (Oryctolagus cuniculus).

Another data set has as its target T4, P450 2B4 H172Q (Oryctolagus cuniculus, UniProt P00178, H172Q).
T4 sequence (P00178 with tags, fused parts or gaps H172Q limits assumed): T1 sequence (P00178 with tags, fused parts or gaps H172F limits assumed) with F153Q
The description is as above. It counts as biochemical, rabbit (Oryctolagus cuniculus).

Regarding `O=c1ccc2nc3ccc(OCc4ccccc4)cc3oc-2c1` [7-BR, 7-benzyloxyresorufin], at P450 2B4 H172F, the kcat turned out to be 0 s⁻¹, the kcat/S50 is 0 and the “substrate turnover (activity)” value is “inactive”. Besides, at P450 2B4 L437A, the kcat is 0 s⁻¹, the kcat/S50 is reported as 0 and the “substrate turnover (activity)” value is listed as “did not turn over; also recorded: no activity”.

Consider `Clc1ccc(-c2c[nH]cn2)cc1` [4-CPI, 4-(4-chlorophenyl)imidazole], for which the results for the IC50 on P450 2B4 E474D and against P450 2B4 H172Q were 240 nM and 220 nM, respectively. The “Ratio 4-CPI IC50/Bifonazole IC50” value on P450 2B4 E474D (2B4 E474D, 50 μM 7-EFC as substrate) turned out to be 0.39; at P450 2B4 H172Q (2B4 H172Q, 50 μM 7-EFC as substrate), 0.29.
